From ChEMBL document CHEMBL1201862, “PubChem BioAssay data set” (2004)
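Tested at 5 concentrations; 48 h exposure; 96-well plates; endpoints linearly interpolated, else capped at highest concentration. GI50 marks 50% less growth.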 The source made the active and inactive calls. Rule as the data show it: active = GI50 up to about 1.1 µM and inactive = higher.

Legend:
Test in all cases: DTP human tumour cell line panel, 48 h
NCI-H23 = tested on: NCI-H23
HCT-15 = tested on: HCT-15
SK-MEL-2 = tested on: SK-MEL-2
SR = tested on: SR
SK-MEL-28 = tested on: SK-MEL-28
SF-295 = tested on: SF-295
IGROV-1 = tested on: IGROV-1
M14 = tested on: M14
SF-539 = tested on: SF-539
KM12 = tested on: KM12
OVCAR-8 = tested on: OVCAR-8
ACHN = tested on: ACHN
NCI-H226 = tested on: NCI-H226
A549 = tested on: A549
U-251 = tested on: U-251
MOLT-4 = tested on: MOLT-4

Structure (SMILES) | GI50 (NCI-H23) | GI50 (HCT-15) [µM] | GI50 (SK-MEL-2) | GI50 (SR) | GI50 (SK-MEL-28) | GI50 (SF-295) | GI50 (IGROV-1) | GI50 (M14) | GI50 (SF-539) | GI50 (KM12) | GI50 (OVCAR-8) | GI50 (ACHN) | GI50 (NCI-H226) | GI50 (A549) | GI50 (U-251) | GI50 (MOLT-4)
CC1NOC(=O)C1/N=N/c1ccc(Cl)cc1Cl (stereo unspecified) | 20.8 µM (inactive) | 18.5 | 23.8 µM (inactive) | 18.7 µM (inactive) | 38.9 µM (inactive) | 28.8 µM (inactive) | 26.9 µM (inactive) | 21 µM (inactive) | 47.4 µM (inactive) | 15.1 µM (inactive) | 31.6 µM (inactive) | 21.4 µM (inactive) | 25.4 µM (inactive) | 23 µM (inactive) | 18.5 µM (inactive) | 19.6 µM (inactive)
O=C(CC(=O)Nc1cccc(Cl)c1)NNCC(=O)Nc1nnc(-c2ccccc2)s1 | 94.6 µM (inactive) | 39.3 | > 100 µM (inactive) | 41.2 µM (inactive) | > 100 µM (inactive) | > 100 µM (inactive) | > 100 µM (inactive) | 30.4 µM (inactive) | > 100 µM (inactive) | > 100 µM (inactive) | 20.8 µM (inactive) | 39.8 µM (inactive) | 22.9 µM (inactive) | > 100 µM (inactive) | 34 µM (inactive) | 34.9 µM (inactive)
CCN(CC)CC(C(=O)Nc1c(C)cccc1C)/C(C)=N\NC(=O)C[N+](C)(C)C (stereo unspecified) | > 100 µM (inactive) | > 100 |  | > 100 µM (inactive) | > 100 µM (inactive) | > 100 µM (inactive) | > 100 µM (inactive) | > 100 µM (inactive) | > 100 µM (inactive) | > 100 µM (inactive) | > 100 µM (inactive) | > 100 µM (inactive) | > 100 µM (inactive) | > 100 µM (inactive) | > 100 µM (inactive) | > 100 µM (inactive)
CCOC(=O)C1S/C(=N\c2ccc(Cl)cc2)N=C1C (stereo unspecified) | 18 µM (inactive) | 16.1 | 22.6 µM (inactive) |  | 20.5 µM (inactive) | 19.6 µM (inactive) | 19.5 µM (inactive) |  | 17.9 µM (inactive) | 18.2 µM (inactive) | 22.3 µM (inactive) | 20.5 µM (inactive) | 25.6 µM (inactive) | 17.8 µM (inactive) | 18.8 µM (inactive) | 16.7 µM (inactive)
O=C1Nc2cc(Cl)ccc2N=CC1NC(=O)C(c1ccccc1)c1ccccc1Cl (stereo unspecified) | > 100 µM (inactive) | > 100 | > 100 µM (inactive) |  | > 100 µM (inactive) | > 100 µM (inactive) | > 100 µM (inactive) | > 100 µM (inactive) | > 100 µM (inactive) | > 100 µM (inactive) | > 100 µM (inactive) | > 100 µM (inactive) | > 100 µM (inactive) | > 100 µM (inactive) | > 100 µM (inactive) | > 100 µM (inactive)
C/C(=N\NC(N)=O)C(CN1CCCCC1)C(c1ccccc1)c1c(O)c2ccccc2oc1=O (stereo unspecified) |  | > 100 | > 100 µM (inactive) | > 100 µM (inactive) | > 100 µM (inactive) | > 100 µM (inactive) | > 100 µM (inactive) | > 100 µM (inactive) | > 100 µM (inactive) | > 100 µM (inactive) | > 100 µM (inactive) | > 100 µM (inactive) | > 100 µM (inactive) | > 100 µM (inactive) | > 100 µM (inactive) | > 100 µM (inactive)
Cc1cc(=O)oc2cc(OCc3nc4ccccc4c(=O)n3-c3ccccc3)ccc12 | > 100 µM (inactive) | > 100 | > 100 µM (inactive) |  | > 100 µM (inactive) | 58.2 µM (inactive) | > 100 µM (inactive) | > 100 µM (inactive) | > 100 µM (inactive) | > 100 µM (inactive) | 45.1 µM (inactive) | > 100 µM (inactive) | > 100 µM (inactive) | > 100 µM (inactive) | 54.7 µM (inactive) | > 100 µM (inactive)
